Measured values taken from paper PMC4838304, “Effective Design of Multifunctional Peptides by Combining Compatible Functions” (PLoS Computational Biology, 2016).
Read-outs that look alike come from different tables or passages of the source.

Legend:
[1] = system: Escherichia coli strain DH5α; assay: microbe, parasite or virus in culture; assay type: cell-based
Excerpt: If CPP, DNA binding and AMP activities are compatible, the designed peptides should inhibit bacterial growth. Here we exposed E. coli DH5α cells to varying low concentrations of the designed peptides as well as several controls (see Fig 4). […] To test whether α-factor was important for AMP activity we also tested pure α-factor, pure NLS, the optimized NLS fitting CPP rules (NLS-CE) and the Iztli-1 peptide, a previously reported peptide with an embedded α-factor specifically designed to have antibacterial activity. […] A linear trend could be observed between concentration and growth inhibition (regression lines with standard deviations shown in Fig 6). […] The minimal inhibitory concentrations for E. coli are reported in Table 2 (growth curves are shown in S4 Fig).
Fig 6 Antibacterial activity. DH5α E. coli cells were treated with varying concentrations of peptides ranging from 0 to 16 μM for the peptides and 0 to 48 μM for Ampicillin. The relative area under the growth curve measured the growth inhibition. Measurements from four repetitions distributed onto two different plates are shown as dots colored by their respective concentrations. Linear regressions are shown as blue lines and their respective standard errors as blue shades. Dashed lines indicate the mean area under the curve for the H2O controls and its 50% value respectively. Minimal inhibitory concentrations to achieve 50% or 100% of cell growth inhibition are reported.
Escherichia coli strain DH5α was grown for 12 hours to mid-log phase and diluted to 8·10^5 cells/ml by using the reference OD obtained by absorption spectroscopy. Each sample 100μL culture was treated with 50μL solution containing the respective peptide in the desired concentration or water in the case of the controls. Growth curves were measured on two 96 well half area plates with two replicates each followed for 24h using a plate reader (Synergy, USA). In order to minimize plate-specific effects due to variations in loading time or initial cell numbers, different plates measurements were normalized by the time-point where the water control samples reached their half-maximal OD before combining. The respective minimum from each growth curve was subtracted from the normalized data from individual or combined plates. Areas under the curves were obtained by applying a linear interpolation to the OD curves, which was then integrated exactly. Growth rates were obtained by log-transforming the growth curves, identifying the exponential phase by the linear parts in that log-transformation (OD600 between 0.05 and 0.5) and performing a linear regression in the exponential phase with the slope denoting the respective growth rate. All mentioned methodology was implemented in R (www.r-project.org) and is available as open source at http://github.com/cdiener/dcf.
Using the slope of the linear regressions determined in these experiments, we estimated the minimal inhibitory concentration (MIC) for E. coli of our 3 CPP designed peptides (α-NLS-C, NLS-α-CE and chimera) and tested it experimentally.

[2] = system: Escherichia coli strain DH5α; assay type: cell-based; conditions: 12 h
[3] = system: pheromone-signaling pathway (Fus1-eGFP) in MATa cells; assay: Pheromone signaling assay, Fus1-GFP expression and shmoo phenotype; assay type: cell-based, Saccharomyces cerevisiae; conditions: BY4741 fus1::eGFP, 60 μM peptide (20 μM for α-factor), 3h
Protocol: Finally, the activity of the α-factor embedded in the peptides was evaluated by activation of the pheromone-signaling pathway in MATa cells of S. cerevisiae. We monitored the pheromone signaling activity by following the expression of the GFP-labeled Fus1 protein. Fus1 is among the proteins with the highest pheromone-induced expression and is required for cell-cell fusion during mating. […] The observed phenotype was consistent with the activation of signaling showing a mating protrusion, often called “shmoo” as well as the absence of budding due to inhibition of the Cdc28 cyclin [35, 36].
Fig 5 Pheromone activity. The pheromone signaling pathway is confirmed by the expression of Fus1-GFP, characteristic “shmoo” phenotype and the absence of budding observed in differential interference contrast (DIC) bright field. Concentrations were 20 μM for α-factor and 60 μM for all other peptides. The negative control was water without any peptide.
Pheromone signaling induction in Saccharomyces cerevisiae was measured by induction of eGFP fluorescence in a BY4741 strain containing the Fus1-eGFP construct in place of the wild type Fus1 (MATa his3Δ1 leu2Δ0 met15Δ0 ura3Δ0 fus1::eGFP HIS3MX6, obtained from the yeast GFP collection). The BY4741 fus1::eGFP strain was grown overnight in YPD to mid-log phase and diluted to 10^6 cells/mL. Samples were treated with the respective peptide concentrations and incubated for 3h before mixing 1:1 with low-diffusivity agarose suspended on a covered glass slide. Images were taken with an Olympus FV10 confocal microscope using a 60x objective with […]. Images were analyzed using Fiji (www.fiji.sc). The only modifications applied to the images were separation of the bright field and GFP channels, adjustment of brightness and contrast to 50% and addition of scale bars.

pGREG546 plasmid = assay: Electrophoretic mobility shift assay (EMSA), DNA retention; assay type: binding; conditions: for DNA binding in EMSA, in words: 1μg pGREG546, DNA to peptide charge ratio 1:1 or 1:4, 30 minutes
Excerpt: To test the ability of the designed peptides to bind nucleic acids, we evaluated by electrophoretic mobility shift assays (EMSAs) the retention of DNA by the designed peptides. Each EMSA was executed with peptide quantities that were multiples of the DNA to peptide charge ratio. A DNA to peptide charge ratio of 1:1 is represented by the number of positive charges of the peptide required to neutralize the negative charges of the DNA backbone. Retention in the gel is an indirect measure of the fraction of positive charges within the peptide participating in binding the DNA molecules. All EMSA assays were performed using the yeast plasmid pGREG546. As negative control, pGREG546 without any peptide was used, and as positive control the known DNA-binding cell penetrating peptide MPG was used. […] However, retention in the gel was observed when NLS was joined to any larger peptide fragment.
Fig 4 DNA binding. (A) Quantification of DNA retention obtained from three independent electrophoretic mobility shift assays. All measurements are shown and horizontal bars denote the sample mean. Representative gels are shown in (B-C).
1μg of pGREG546 plasmid was pre-incubated with the required quantity of each peptide to result in a 1:1 or 1:4 peptide charge to DNA charge ratio. Samples were incubated for 30 minutes and loaded on a 1% Agarose gel in SB buffer. DNA affinity was quantified by measuring the mean pixel intensity of the DNA bands with Fiji (http://fiji.sc) and normalizing to the intensity range between an empty spot on the gel and the intensity of the pGREG546 plasmid without any added peptide. Analysis scripts for the EMSA experiments as well as the raw data can be found with the distributed source code at http://bis.ifc.unam.mx/software/dcf.

[4] = Circular dichroism, secondary structure content (CONTIN/LL); assay type: physicochemical; conditions: for Secondary Structure Random coil / Secondary Structure α-Helix / Secondary Structure β-Sheet: 0.3mg in 1mL, 20°C, far-UV CD, CONTIN/LL
Protocol: We studied the structural properties of the peptides in vitro, using circular dichroism (see Materials and Methods). The far-UV CD spectra for NLS-CE, NLS-α and NLS-α-CE in water matched the characteristics of a random coil conformation.
Circular dichroism spectra were recorded on a ChirascanTM CD Spectrometer (Applied Photophysics, UK) equipped with a peltier temperature controller. 0.3mg of each peptide was dissolved in 1mL of water or 50% aqueous trifluoroethanol and placed in quartz cuvettes of 0.1cm path length. Far-UV CD spectra were collected from 185 to 250 nm at 20°C. Spectra were averaged over 5 scans and the averaged blank spectra of solvents were subtracted. Ellipticity is reported as mean residue molar ellipticity and recorded in terms of molar elipticity [θ] (deg cm^2 dmol^−1). CONTIN/LL within the CDPro analysis software program was used to estimate the secondary structure content of the peptides.

[5] = E. coli DH5α, peptides 0 to 16 μM

Compound	pheromone signaling activity (Fus1-GFP expression, phenotype) [3]	DNA binding in EMSA, in words (pGREG546 plasmid)	antibacterial activity against E. coli, in words [1, 5]	Secondary Structure Random coil ([4]; 50% TFE) [%]	Secondary Structure α-Helix ([4]; 50% TFE) [%]	Secondary Structure β-Sheet ([4]; 50% TFE) [%]	Secondary Structure Random coil ([4]; water) [%]	Secondary Structure α-Helix ([4]; water) [%]	Secondary Structure β-Sheet ([4]; water) [%]	further results
CC1(C)S[C@@H]2[C@H](NC(=O)[C@H](N)c3ccccc3)C(=O)N2[C@H]1C(=O)O [Ampicillin, reference compound]										MIC ([1]; Escherichia coli, E. coli DH5α, growth curves followed for 24h, relative area under the growth curve, read-out: E. coli MIC for 50% inhibition): > 48 µM; MIC ([1]; Escherichia coli, E. coli DH5α, predicted from linear regression and tested experimentally, read-out: E. coli MIC for 100% inhibition): 100 µM
CSCC[C@H](NC(=O)[C@@H]1CCCN1C(=O)[C@H](CCC(N)=O)NC(=O)CNC(=O)[C@@H]1CCCN1C(=O)[C@H](CCCCN)NC(=O)[C@H](CC(C)C)NC(=O)[C@H](CCC(N)=O)NC(=O)[C@H](CC(C)C)NC(=O)[C@H](Cc1c[nH]c2ccccc12)NC(=O)[C@H](Cc1c[nH]cn1)NC(=O)[C@H](Cc1c[nH]c2ccccc12)NC(=O)[C@H](Cc1ccccc1)NC(=O)[C@H](CCCNC(=N)N)NC(=O)[C@H](CC(N)=O)NC(=O)[C@H](CC(C)C)NC(=O)[C@H](Cc1ccccc1)NC(=O)[C@@H](N)CCCCN)C(=O)N[C@@H](Cc1ccc(O)cc1)C(=O)O [Iztli-1, reference compound]	same phenotype	increased its affinity for DNA	very similar E. coli growth inhibition as NLS-α							E. coli MIC for 100% inhibition [2]: 20 µM; MIC ([1]; DH5α, 24 h, read-out: E. coli MIC for 50% inhibition): 8 µM
PKKKRKVWHWLQLKPGQPMY [NLS-α]	significant induction of expression of Fus1-GFP			59	6	35	67	5	28	concentration showing partial growth inhibition [1, 5]: 4 µM; aggregation suggested by decrease in negative ellipticity ([4]; 50% TFE, CD spectra): TFE promoted aggregation of the peptides
QPKKKRKV [NLS, reference compound]		not capable of binding DNA in low concentrations	no antibacterial activity							
WHWLQLKPGQPMY [α-factor, mating pheromone α-factor from S. cerevisiae, purchased from Sigma-Aldrich]		weak ability to bind DNA	no antibacterial activity							DNA retention (pGREG546 plasmid; 1:4 DNA to peptide charge ratio, 1μg pGREG546, 30 minutes, 1% agarose gel): around 60%
WRFVWMNPKKKRKV [NLS-CE, optimized NLS fitting CPP rules]		effective DNA-binding activity	partial growth inhibition	61	5	34	64	6	31	
